One may read the inhibition as the relative decrease from the control value, in per cent.

Consider 48 compounds from patent US6225478A, “Iridoid derivatives and neovascularization inhibitors containing the same as active ingredient” (Tsumura & Co., priority 1999, dated 2001).

In one assay the test system is HUFEC. The assay is described as follows: Cell Migration Assay (CMA) Test, inhibitory rate with control (-) correction. The assay is classed as cell-based, human. Conditions: Homo sapiens, 24 h, 125 μl of 0.32 mM sample solution in 4.0 ml medium, 80% or more = remarkable. The method, boiled down: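 Confluent HUFEC monolayers were scratch-wounded, then cultured 24 h at 37 °C, 5% CO2 in M199 (2+) medium with compound added as 125 μl of a 0.32 mM solution (3.2% DMSO) per 4 ml. Giemsa-stained cells migrating into 1 mm×1 mm blocks counted; inhibition % calculated relative to control (+) and control (−) wells.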

For assay [1], the system named is human umbilical-vein endothelial cells (HUVEC). As to the kind of experiment: Tube Formation Assay (TFA) Test, HUVEC in collagen gel. It is filed as cell-based. Conditions: Homo sapiens, HUVEC, Tables 75-83; 0.32 mM sample solution; method as for Compounds 1 through 60; read-out: TFA Inhibition rate (%). The method, boiled down: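 HUVEC (7th subculture, 1×10^5 cells/ml) attached to collagen gel for 2 h at 37 °C, given sample and overlaid with collagen, then cultured 20 h at 37 °C, 5% CO2 in M-199 with 20% FCS, 30 ng/ml b-FGF and 0.1 μM PMA. Tube length measured by image analysis; % inhibition relative to positive and negative controls.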

With `COC(=O)C1=CO[C@@H](OC(=O)NCc2ccc(Cl)cc2)[C@@H]2C(C)=CC[C@H]12` [I-109], the inhibition at 320 µM (stock) is 21.5% with HUFEC and 7.2% in assay [1].
Taken in the same sequence, the figures for `COC(=O)C1=CO[C@@H](OC(=O)NCc2ccc(F)cc2)[C@H]2[C@@H]1CC[C@@H]2C` [I-213] were 21.5% and 6.2%.
Taken in the same sequence, the figures for `COC(=O)C1=COC[C@@H]2C(C(=O)N3CCN(CCO)CC3)=CC[C@H]12` [I-293] were 69.3% and 11.2%.
As for `COC(=O)C1=CO[C@@H](OC(=O)NCCc2c[nH]c3ccccc23)[C@@H]2C(C)=CC[C@H]12` [I-115], the inhibition at 320 µM (stock) was determined as 3.1% in the assay on HUFEC and 6.8% in assay [1].
Taken in the same sequence, the figures for `COC(=O)C1=CO[C@@H](OC(=O)NC(=O)CCl)[C@@H]2C(C)=CC[C@H]12` [I-152] were 33.7% and 51%.
Taken in the same sequence, the figures for `COC(=O)C1=CO[C@@H](OC(=O)NCCc2ccccc2)[C@@H]2C(C)=CC[C@H]12` [I-119] were 18.8% and 4.2%.
Consider `CCOC(=O)C1=COC(OC(=O)NC)C2C1CC1OC12CO` (stereo not drawn) [I-279], for which the inhibition at 320 µM (stock) with HUFEC was found to be 45.1%; in assay [1] it was 13.2%.
On to `COC(=O)C1=CO[C@@H](OC(=O)NCc2ccc(OC)cc2)[C@@H]2C(C)=CC[C@H]12` [I-83], for which the inhibition at 320 µM (stock) in the assay with HUFEC is 50%; in assay [1], 21.4%.
Taken in the same sequence, the figures for `COC(=O)C1=CO[C@@H](OC(=O)NCc2ccccc2)[C@@H]2C(C)=CC[C@H]12` [I-80] were 5.9% and 8.1%.
With `COC(=O)C1=CO[C@@H](OC(=O)Nc2ccc(OC(F)(F)F)cc2)[C@@H]2C(C)=CC[C@H]12` [I-165], the inhibition at 320 µM (stock) in the assay with HUFEC was 12.5%; in assay [1], 7.5%.
Taken in the same sequence, the figures for `COC(=O)C1=CO[C@@H](OC(=O)NC2CCN(Cc3ccccc3)CC2)[C@H]2[C@@H]1CC[C@@H]2C` [I-192] were 7.8% and 4.5%.
Taken in the same sequence, the figures for `COC(=O)C1=CO[C@@H](OC(=O)N(C)CC2OCCO2)[C@@H]2C(C)=CC[C@H]12` [I-93] were 5.8% and 2.4%.
Taken in the same sequence, the figures for `COC(=O)C1=CO[C@@H](OC(=O)N2CCN(c3cccc(C(F)(F)F)c3)CC2)[C@H]2[C@@H]1CC[C@@H]2C` [I-235] were 6.5% and 9.3%.
Regarding `COC(=O)C1=CO[C@@H](OC(=O)N(C)CCc2ccc(OC)c(OC)c2)[C@H]2[C@@H]1CC[C@@H]2C` [I-227], the inhibition at 320 µM (stock) turned out to be 17.2% with HUFEC and 7.4% in assay [1].
For `CCN(CCO)C(=O)O[C@@H]1OC=C(C(=O)OC)[C@H]2CC=C(C)[C@@H]12` [I-97], the inhibition at 320 µM (stock) with HUFEC turned out to be 7.7%; in assay [1], 29.1%.
In the case of `C=CCN(CC=C)C(=O)O[C@@H]1OC=C(C(=O)OC)[C@H]2CC[C@H](C)[C@@H]12` [I-230], the results for the inhibition at 320 µM (stock) (in the assay with HUFEC; in assay [1]) were 28.7% and 6.4%, respectively.
Taken in the same sequence, the figures for `CNC(=O)O[C@@H]1OC=C(C(=O)N2CCN(CCO)CC2)[C@H]2CC[C@@H](C)[C@@H]12` [I-282] were 5.8% and 6%.
Taken in the same sequence, the figures for `COC(=O)C1=CO[C@@H](OC(=O)NC2CCCCCC2)[C@H]2[C@@H]1CC[C@@H]2C` [I-208] were 7.6% and 8.2%.
Taken in the same sequence, the figures for `COC(=O)C1=COC[C@@H]2C(COC(=O)NCCCl)CC[C@H]12` (stereo partly drawn) [I-297] were 15.2% and 11.2%.
With `COC(=O)C1=CO[C@@H](OC(=O)NCCc2ccccn2)[C@H]2[C@@H]1CC[C@@H]2C` [I-182], the inhibition at 320 µM (stock) with HUFEC was 3.9%; in assay [1] it was 9.6%.
For `COC(=O)C1=CO[C@@H](OC(=O)NCC2CC2)[C@@H]2C(C)=CC[C@H]12` [I-139], the inhibition at 320 µM (stock) with HUFEC was 9.7%; in assay [1], 25.6%.
Taken in the same sequence, the figures for `COC(=O)C1=CO[C@@H](OC(=O)NCCCCCO)[C@@H]2C(C)=CC[C@H]12` [I-104] were 24.1% and 3.8%.
Taken in the same sequence, the figures for `C[C@@]12O[C@@H]1C[C@@H]1C(C(=O)O)=CO[C@@H](OC(=O)NCCCl)[C@@H]12` [I-69] were 18.8% and 18%.
Taken in the same sequence, the figures for `C=CCNC(=O)O[C@@H]1OC=C(C(=O)OC)[C@H]2CC=C(C)[C@@H]12` [I-123] were 8% and 14.1%.
On to `CCCCCCC1=CC[C@@H]2C(C(=O)OC)=CO[C@@H](OC(=O)NC)[C@H]12` [I-299], for which the inhibition at 320 µM (stock) with HUFEC stood at 5.9%; in assay [1] it was 8.8%.
For the compound `COC(=O)C1=COC[C@H]2[C@@H]1C[C@@H]1O[C@@]12CO` [I-289], the inhibition at 320 µM (stock) in the assay with HUFEC is 9.4%; in assay [1], 17.1%.
`COC(=O)C1=CO[C@@H](OC(=O)N2CC=C(c3ccccc3)CC2)[C@@H]2C(C)=CC[C@H]12` [I-140]: the inhibition at 320 µM (stock) in the assay with HUFEC is 3.3%; in assay [1] it was 5.2%.
Taken in the same sequence, the figures for `C=CCN(CC=C)C(=O)O[C@@H]1OC=C(C(=O)OC)[C@H]2CC=C(C)[C@@H]12` [I-125] were 17.2% and 2.6%.
Taken in the same sequence, the figures for `CNC(=O)O[C@@H]1OC=C(C(=O)OC)[C@H]2CC[C@@H](C)[C@@H]12` [I-280] were 72.4% and 14.9%.
Taken in the same sequence, the figures for `COC(=O)C1=CO[C@@H](OC(=O)N(C)Cc2ccccc2)[C@@H]2C(C)=CC[C@H]12` [I-81] were 31.2% and 8.3%.
In the case of `COCCCNC(=O)O[C@@H]1OC=C(C(=O)OC)[C@H]2CC=C(C)[C@@H]12` [I-121], the figures for the inhibition at 320 µM (stock) (with HUFEC; in assay [1]) were 7.1% and 9.4%, respectively.
Taken in the same sequence, the figures for `COC(=O)C1=CO[C@@H](OC(=O)NCCCc2ccccc2)[C@@H]2C(C)=CC[C@H]12` [I-112] were 6.8% and 7.9%.
Consider `CNC(=O)O[C@@H]1OC=C(C(=O)OC)[C@H]2CC=C(CO)C12` (stereo in doubt) [I-315, (1S,4aS,7aR)-7-(hydroxy-methyl)-1-(methylcarbamoyloxy)-1,4a,5,7a-tetrahydrocyclopenta [c] pyrane-4-carboxylic acid methylester], for which the values for the inhibition at 320 µM (stock) (in the assay on HUFEC; in assay [1]) were 36.4% and 8.6%, respectively.
Taken in the same sequence, the figures for `COC(=O)C1=CO[C@@H](OC(=O)NCc2ccc(F)cc2)[C@@H]2C(C)=CC[C@H]12` [I-108] were 11.7% and 3%.
Taken in the same sequence, the figures for `CCCN(C)C(=O)O[C@@H]1OC=C(C(=O)OC)[C@H]2CC=C(C)[C@@H]12` [I-90] were 4.3% and 22.8%.
Take `COC(=O)C1=COC[C@H]2[C@@H]1C[C@@H]1O[C@@]12COC(=O)NCCCl` [I-291]: the inhibition at 320 µM (stock) in the assay on HUFEC was 7%; in assay [1], 44.5%.
Taken in the same sequence, the figures for `COC(=O)C1=CO[C@@H](OC(=O)NCCSCc2ccccc2)[C@@H]2C(C)=CC[C@H]12` [I-150] were 5.4% and 32.3%.
Taken in the same sequence, the figures for `COC(=O)C1=CO[C@@H](OC(=O)Nc2ccccc2)[C@H]2[C@@H]1CC[C@@H]2C` [I-271] were 21.6% and 35.1%.
Taken in the same sequence, the figures for `CCN(CCO)C(=O)O[C@@H]1OC=C(C(=O)OC)[C@H]2CC[C@H](C)[C@@H]12` [I-203] were 5.9% and 15.8%.
As for `COC(=O)C1=CO[C@@H](OC(=O)N2CCC2)[C@H]2[C@@H]1CC[C@@H]2C` [I-250], the inhibition at 320 µM (stock) with HUFEC is 8%; in assay [1], 4.1%.
Taken in the same sequence, the figures for `COC(=O)C1=CO[C@@H](OC(=O)NCCc2ccc(F)cc2)[C@@H]2C(C)=CC[C@H]12` [I-107] were 31.2% and 4.4%.
Taken in the same sequence, the figures for `COC(=O)C1=CO[C@@H](OC(=O)NCCCN(C)C)[C@@H]2C(C)=CC[C@H]12` [I-105] were 14.9% and 5.6%.
Taken in the same sequence, the figures for `CNC(=O)OC[C@]12O[C@H]1C[C@@H]1C(C(=O)OC)=COC[C@@H]12` [I-290] were 51.5% and 13.5%.
On to `COC(=O)C1=CO[C@@H](OC(=O)NC(C)C)[C@@H]2C(C)=CC[C@H]12` [I-155], for which the inhibition at 320 µM (stock) is 19.9% in the assay with HUFEC and 45.7% in assay [1].
Taken in the same sequence, the figures for `COC(=O)C1=CO[C@@H](OC(=O)NCc2ccc(OC(F)(F)F)cc2)[C@@H]2C(C)=CC[C@H]12` [I-106] were 6.7% and 26.8%.
Taken in the same sequence, the figures for `COC(=O)C1=CO[C@@H](OC(=O)N(C)CCN(C)C)[C@H]2[C@@H]1CC[C@@H]2C` [I-189] were 8.5% and 4.7%.
Taken in the same sequence, the figures for `COC(=O)C1=CO[C@@H](OC(=O)NCCc2ccc(O)c(OC)c2)[C@H]2[C@@H]1CC[C@@H]2C` [I-248] were 2.2% and 5.7%.
On to `COC(=O)C1=CO[C@H](OC(=S)N(C)C)[C@H]2[C@@H]1C[C@@H]1O[C@]21C` [I-285], for which the inhibition at 320 µM (stock) in the assay with HUFEC came to 6.5%; in assay [1], 7.7%.
